Results on two compounds are retold here after ChEMBL document CHEMBL4706476, “Novel Tetrahydropyrido[4,3-d]pyrimidines as Potent Inhibitors of Chaperone Heat Shock Protein 90” (J Med Chem, 2016).

Each structure is given as a SMILES string. ≈ marks a conversion by molar mass, not a printed value. Calls of active or inactive are those of the source. The calls are words filed in the database; no cut-off is given here. Bounds are passed on as bounds.

Data set [1] in a line: Ocular toxicity in Sprague-Dawley rat retina damage model assessed as induction of retinal cell death at 10 mg/kg, iv administered for 2 consecutive days by TUNEL staining based analysis. The data set is classed as organism-based. Conditions: in vivo, 48 h, time 2 day.
Data set [2] has as its system Rattus norvegicus. Description: Ex vivo inhibition of HSP90 in Sprague-Dawley rat assessed as up regulation of HSP70 expression in retina at 10 mg/kg, iv administered for 2 consecutive days and measured 24 hrs post last dose by immunohistochemistry analysis. The format is functional, organism-based. As to conditions: time 3.0 day.
Data set [3] deals with Rattus norvegicus. The data set can be described thus: Ex vivo inhibition of HSP90 in Sprague-Dawley rat assessed as up regulation of HSP70 expression in retina at 10 mg/kg, iv administered for 2 consecutive days and measured 24 hrs post last dose by Western blot analysis. The data set is classed as functional, organism-based.
Data set [4] can be described thus: AUC (0 to t) in rat at 50 mg/kg, po measured upto 24 hrs by LC-MS/MS analysis. Conditions: in vivo. Details: route oral, dose 50 mg/kg, time <=24. The format is ADME, organism-based.
For the next data set, the system named is MV4-11. Description: Antiproliferative activity against human MV4-11 assessed as reduction in cell viability incubated for 72 hrs by MTT assay. The format is functional, cell-based. Conditions: MV4-11, 72 h.
Data set [5] in a line: Apparent volume of distribution in rat at 50 mg/kg, po measured upto 24 hrs by LC-MS/MS analysis. The data set is classed as ADME, organism-based. Conditions: in vivo.
Data set [6] can be described thus: Intrinsic clearance in human liver microsomes at 1 uM preincubated for 5 mins followed by NADPH addition and measured up to 120 mins by LC-MS/MS analysis. The format is ADME, Microsome. Conditions: 2 h, time <=125 min.
Data set [7] can be described thus: Apparent clearance during terminal phase in rat at 50 mg/kg, po measured upto 24 hrs by LC-MS/MS analysis. The data set is classed as ADME, organism-based. Conditions: in vivo, read-out: CLz/F (converted).
Data set [8] is described as follows: Permeability of the compound at pH 7.4 by PAMPA. The data set is classed as ADME. As to conditions: read-out: permeability.
The test system of another data set is MKN-28. Description: Antiproliferative activity against human MKN-28 assessed as reduction in cell viability incubated for 72 hrs by MTT assay. The data set is classed as functional, cell-based. As to conditions: MKN-28, 72 h.
The subject of the next data set is SK-BR-3. Description: Antiproliferative activity against human SK-BR-3 assessed as reduction in cell viability incubated for 72 hrs by MTT assay. The format is functional, cell-based. As to conditions: SK-BR-3, 72 h.
For another data set, the system named is A549. Description: Antiproliferative activity against human A549 assessed as reduction in cell viability incubated for 72 hrs by MTT assay. The format is functional, cell-based. Conditions: A549, 72 h.
The test system of the next data set is L02. Description: Cytotoxicity against human L02 cells assessed as reduction in cell viability incubated for 72 hrs by MTT assay. As to conditions: L02, 72 h. The data set is classed as cell-based.
A short description of data set [9]: AUC (0 to t) in rat at 10 mg/kg, iv measured upto 24 hrs by LC-MS/MS analysis. The data set is classed as ADME, organism-based. Details: route intravenous, dose 10 mg/kg, time <=24. As to conditions: in vivo.
The nature of data set [10]: Drug distribution in blood of mouse xenografted with human HCT-116 cells at 60 mg/kg, iv by LC-MS/MS analysis. Conditions: in vivo.
A short description of data set [11]: Drug distribution in liver of mouse xenografted with human HCT-116 cells at 60 mg/kg, iv by LC-MS/MS analysis. As to conditions: in vivo.
The target in another data set is CYP3A4 (Homo sapiens, UniProt P08684). Description: Inhibition of CYP3A4 in human liver microsomes at 10 uM using midazolam as substrate preincubated for 5 mins followed by NADPH addition and measured after 20 mins by LC-MS/MS analysis relative to control. The format is ADME. As to conditions: probe midazolam, time 25 min.
Sequence of CYP3A4 (P08684 whole entry): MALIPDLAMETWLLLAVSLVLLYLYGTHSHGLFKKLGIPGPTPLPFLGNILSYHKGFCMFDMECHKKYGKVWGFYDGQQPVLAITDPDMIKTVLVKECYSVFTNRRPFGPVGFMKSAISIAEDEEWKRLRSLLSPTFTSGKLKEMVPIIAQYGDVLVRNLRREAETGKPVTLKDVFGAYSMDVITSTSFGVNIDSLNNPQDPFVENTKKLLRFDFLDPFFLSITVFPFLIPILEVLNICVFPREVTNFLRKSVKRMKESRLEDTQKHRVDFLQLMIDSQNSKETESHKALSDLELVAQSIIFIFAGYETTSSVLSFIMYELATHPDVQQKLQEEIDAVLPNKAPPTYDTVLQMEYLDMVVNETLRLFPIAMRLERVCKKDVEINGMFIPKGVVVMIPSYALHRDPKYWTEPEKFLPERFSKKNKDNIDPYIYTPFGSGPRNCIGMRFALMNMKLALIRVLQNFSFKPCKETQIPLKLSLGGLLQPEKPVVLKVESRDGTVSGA
Data set [12] is described as follows: Tmax in rat at 50 mg/kg, po measured upto 24 hrs by LC-MS/MS analysis. The format is ADME, organism-based. As to conditions: in vivo.
Data set [13] in a line: Drug concentration in tumor of mouse xenografted with human HCT-116 cells at 60 mg/kg, iv measured at 48 hrs by LC-MS/MS analysis. Conditions: in vivo.
The next data set addresses CYP2C19 (Homo sapiens, UniProt P33261). Description: Inhibition of CYP2C19 in human liver microsomes at 10 uM using mephenytoin as substrate preincubated for 5 mins followed by NADPH addition and measured after 20 mins by LC-MS/MS analysis relative to control. Conditions: probe mephenytoin.
A further data set concerns the target CYP2C9 (Homo sapiens, UniProt P11712). Description: Inhibition of CYP2C9 in human liver microsomes at 10 uM using diclofenac as substrate preincubated for 5 mins followed by NADPH addition and measured after 20 mins by LC-MS/MS analysis relative to control. The format is ADME. As to conditions: probe diclofenac, time 25 min.
A short description of data set [14]: Intrinsic aqueous solubility of the compound. The format is physicochemical.
A short description of data set [15]: Drug distribution in spleen of mouse xenografted with human HCT-116 cells at 60 mg/kg, iv by LC-MS/MS analysis. Conditions: in vivo.
The nature of data set [16]: Cmax in rat at 50 mg/kg, po measured upto 24 hrs by LC-MS/MS analysis. The format is ADME, organism-based. Also noted: route oral, dose 50 mg/kg, time <=24. Conditions: in vivo.
In a further data set the test system is MDA-MB-231. The data set can be described thus: Antiproliferative activity against human MDA-MB-231 assessed as reduction in cell viability incubated for 72 hrs by MTT assay. As to conditions: MDA-MB-231, 72 h. The data set is classed as functional, cell-based.
The nature of data set [17]: Oral bioavailability in rat at 50 mg/kg measured upto 24 hrs by LC-MS/MS analysis. The data set is classed as ADME, organism-based. Conditions: in vivo.
The next data set concerns K562. The data set can be described thus: Antiproliferative activity against human K562 assessed as reduction in cell viability incubated for 72 hrs by MTT assay. As to conditions: K562, 72 h. The data set is classed as functional, cell-based.
Data set [18] is described as follows: Apparent volume of distribution in rat at 10 mg/kg, iv measured upto 24 hrs by LC-MS/MS analysis. The data set is classed as ADME, organism-based. Conditions: in vivo, read-out: Vz.
In a further data set the test system is T47D. The data set can be described thus: Antiproliferative activity against human T47D assessed as reduction in cell viability incubated for 72 hrs by MTT assay. The data set is classed as functional, cell-based.
The nature of data set [19]: Half-life in rat at 10 mg/kg, iv measured upto 24 hrs by LC-MS/MS analysis. As to conditions: in vivo. The data set is classed as ADME, organism-based.
The test system of a further data set is MCF7. The data set can be described thus: cells. As to conditions: Homo sapiens, MCF7, 72 h.
The test system of a further data set is HepG2. Description: Antiproliferative activity against human HepG2 assessed as reduction in cell viability incubated for 72 hrs by MTT assay. The format is functional, cell-based. Conditions: HepG2, 72 h.
A short description of data set [20]: Metabolic stability in human liver microsomes assessed as parent compound remaining at 1 uM preincubated for 5 mins followed by NADPH addition and measured up to 120 mins by LC-MS/MS analysis. The format is ADME, Microsome. Conditions: 2 h, time <=125 min.
The next data set addresses CYP1A2 (Homo sapiens, UniProt P05177). Description: Inhibition of CYP1A2 in human liver microsomes at 10 uM using phenacetin as substrate preincubated for 5 mins followed by NADPH addition and measured after 20 mins by LC-MS/MS analysis relative to control. The format is ADME. As to conditions: probe phenacetin, time 25 min.
A further data set has as its system HCT-116. The data set can be described thus: cells. Conditions: Homo sapiens, HCT-116, 72 h.
For a further data set, the target named is CYP2D6 (Homo sapiens, UniProt P10635). The data set can be described thus: Inhibition of CYP2D6 in human liver microsomes at 10 uM using dextromethorphan as substrate preincubated for 5 mins followed by NADPH addition and measured after 20 mins by LC-MS/MS analysis relative to control. Conditions: probe dextromethorphan, time 25 min. The format is ADME.
Sequence of CYP2D6 (P10635 whole entry): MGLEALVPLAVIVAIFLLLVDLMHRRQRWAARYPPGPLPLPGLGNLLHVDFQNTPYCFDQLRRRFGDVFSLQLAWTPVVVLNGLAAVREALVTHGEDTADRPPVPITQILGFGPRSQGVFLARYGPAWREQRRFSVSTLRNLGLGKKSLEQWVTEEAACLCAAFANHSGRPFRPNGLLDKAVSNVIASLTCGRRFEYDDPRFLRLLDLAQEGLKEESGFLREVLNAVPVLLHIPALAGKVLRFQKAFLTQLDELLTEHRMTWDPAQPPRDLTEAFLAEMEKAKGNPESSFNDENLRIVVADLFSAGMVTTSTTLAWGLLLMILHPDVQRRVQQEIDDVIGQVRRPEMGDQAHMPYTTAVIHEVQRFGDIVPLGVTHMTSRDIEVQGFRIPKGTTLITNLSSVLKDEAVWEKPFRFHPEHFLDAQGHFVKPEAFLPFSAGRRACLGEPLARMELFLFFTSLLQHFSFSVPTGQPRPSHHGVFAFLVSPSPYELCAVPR

Data set [21] in a line: Ocular toxicity in Sprague-Dawley rat retina damage model assessed as induction of retinal cell death at 20 mg/kg, iv administered for 2 consecutive days by TUNEL staining based analysis. Conditions: in vivo, 48 h, time 2 day. The format is organism-based.
Another data set relates to U2OS. The data set can be described thus: Antiproliferative activity against human U2OS assessed as reduction in cell viability incubated for 72 hrs by MTT assay. The data set is classed as functional, cell-based.
A short description of data set [22]: Distribution coefficient, logD of compound at pH 7.4. The data set is classed as physicochemical. Conditions: octanol/water.
In the next data set the test system is BT-474. The data set can be described thus: Antiproliferative activity against human BT-474 assessed as reduction in cell viability incubated for 72 hrs by MTT assay. The format is functional, cell-based. Conditions: BT-474, 72 h.
A short description of data set [23]: Apparent clearance during terminal phase in rat at 10 mg/kg, iv measured upto 24 hrs by LC-MS/MS analysis. The format is ADME, organism-based. As to conditions: in vivo.
Data set [24] can be described thus: Half-life in rat at 50 mg/kg, po measured upto 24 hrs by LC-MS/MS analysis. The data set is classed as ADME, organism-based. Conditions: in vivo.
A further data set deals with Endoplasmin (Homo sapiens, UniProt P14625). The data set can be described thus: Displacement of FITC-geldanamycin from N-terminal GRP94 (unknown origin) after 30 mins by fluorescence polarization competitive binding assay.
Sequence of Endoplasmin (P14625 whole entry): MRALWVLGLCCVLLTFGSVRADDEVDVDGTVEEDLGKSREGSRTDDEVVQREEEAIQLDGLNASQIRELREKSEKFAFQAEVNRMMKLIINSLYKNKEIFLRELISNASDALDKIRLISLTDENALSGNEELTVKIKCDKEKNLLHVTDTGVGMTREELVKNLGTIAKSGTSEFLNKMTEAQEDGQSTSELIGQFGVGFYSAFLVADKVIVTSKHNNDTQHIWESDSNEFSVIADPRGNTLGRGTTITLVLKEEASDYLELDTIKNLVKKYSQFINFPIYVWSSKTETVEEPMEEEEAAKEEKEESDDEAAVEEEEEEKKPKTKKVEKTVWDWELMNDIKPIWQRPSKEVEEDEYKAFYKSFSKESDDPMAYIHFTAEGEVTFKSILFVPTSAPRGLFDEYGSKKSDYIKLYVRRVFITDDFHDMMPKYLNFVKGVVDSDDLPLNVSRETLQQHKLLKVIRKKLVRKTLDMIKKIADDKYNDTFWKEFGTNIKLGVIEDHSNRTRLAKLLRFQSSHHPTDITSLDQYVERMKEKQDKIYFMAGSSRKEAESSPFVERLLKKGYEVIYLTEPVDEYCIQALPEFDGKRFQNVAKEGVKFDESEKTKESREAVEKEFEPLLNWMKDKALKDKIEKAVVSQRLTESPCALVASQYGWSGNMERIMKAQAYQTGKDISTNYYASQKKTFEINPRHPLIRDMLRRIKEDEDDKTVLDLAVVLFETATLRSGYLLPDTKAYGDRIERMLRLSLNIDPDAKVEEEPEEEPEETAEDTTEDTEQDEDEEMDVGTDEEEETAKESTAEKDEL
A short description of data set [25]: Half life in human liver microsomes at 1 uM preincubated for 5 mins followed by NADPH addition and measured up to 120 mins by LC-MS/MS analysis. As to conditions: 2 h, time <=125 min. The format is ADME, Microsome.
In the next data set the test system is MDA-MB-468. The data set can be described thus: Antiproliferative activity against human MDA-MB-468 assessed as reduction in cell viability incubated for 72 hrs by MTT assay. The format is functional, cell-based. As to conditions: MDA-MB-468, 72 h.
The target of data set [26] is Heat shock protein HSP 90-alpha (Homo sapiens, UniProt P07900). Description: Displacement of FITC-geldanamycin from N-terminal HSP90alpha (unknown origin) after 30 mins by fluorescence polarization competitive binding assay.

Sequence of CYP1A2 (P05177 whole entry): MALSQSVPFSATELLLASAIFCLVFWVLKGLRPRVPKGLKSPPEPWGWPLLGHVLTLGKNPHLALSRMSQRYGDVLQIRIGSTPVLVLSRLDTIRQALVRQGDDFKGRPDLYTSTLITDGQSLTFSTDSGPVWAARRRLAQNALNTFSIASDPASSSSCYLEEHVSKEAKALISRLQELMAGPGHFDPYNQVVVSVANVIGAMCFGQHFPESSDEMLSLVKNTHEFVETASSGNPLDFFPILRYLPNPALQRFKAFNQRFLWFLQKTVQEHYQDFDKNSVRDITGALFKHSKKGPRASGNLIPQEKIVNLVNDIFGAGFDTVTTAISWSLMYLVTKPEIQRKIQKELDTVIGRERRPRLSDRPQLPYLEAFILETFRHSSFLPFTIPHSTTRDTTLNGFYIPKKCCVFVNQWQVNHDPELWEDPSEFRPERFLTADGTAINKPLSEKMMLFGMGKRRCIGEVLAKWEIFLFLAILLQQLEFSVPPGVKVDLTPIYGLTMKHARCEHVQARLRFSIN
Sequence of CYP2C9 (P11712 whole entry): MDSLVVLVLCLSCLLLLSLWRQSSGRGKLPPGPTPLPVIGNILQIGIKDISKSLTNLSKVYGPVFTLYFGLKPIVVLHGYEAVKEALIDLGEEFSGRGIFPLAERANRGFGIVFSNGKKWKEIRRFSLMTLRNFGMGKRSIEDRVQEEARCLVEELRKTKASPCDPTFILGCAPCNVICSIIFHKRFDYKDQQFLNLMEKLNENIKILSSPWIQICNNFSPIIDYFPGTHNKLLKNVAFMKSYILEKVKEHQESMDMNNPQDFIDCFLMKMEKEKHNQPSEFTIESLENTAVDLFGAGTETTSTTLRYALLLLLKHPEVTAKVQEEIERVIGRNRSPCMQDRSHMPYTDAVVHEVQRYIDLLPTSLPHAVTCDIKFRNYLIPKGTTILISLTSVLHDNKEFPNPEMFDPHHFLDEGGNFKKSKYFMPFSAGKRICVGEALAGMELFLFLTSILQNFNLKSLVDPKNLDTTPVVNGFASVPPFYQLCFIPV
Sequence of CYP2C19 (P33261 whole entry): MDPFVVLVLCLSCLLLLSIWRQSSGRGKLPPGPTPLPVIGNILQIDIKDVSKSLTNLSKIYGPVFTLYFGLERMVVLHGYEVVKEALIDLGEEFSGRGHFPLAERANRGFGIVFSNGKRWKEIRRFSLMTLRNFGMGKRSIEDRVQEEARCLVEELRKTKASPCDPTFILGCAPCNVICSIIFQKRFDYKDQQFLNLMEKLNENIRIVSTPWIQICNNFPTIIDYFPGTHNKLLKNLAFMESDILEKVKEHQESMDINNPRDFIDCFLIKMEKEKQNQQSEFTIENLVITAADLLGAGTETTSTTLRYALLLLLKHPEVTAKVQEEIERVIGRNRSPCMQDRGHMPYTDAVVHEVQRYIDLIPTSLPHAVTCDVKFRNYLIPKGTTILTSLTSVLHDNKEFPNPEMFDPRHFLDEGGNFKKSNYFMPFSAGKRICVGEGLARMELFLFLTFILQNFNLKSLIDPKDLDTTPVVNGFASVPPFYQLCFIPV

Consider `CCNC(=O)c1noc(-c2cc(C(C)C)c(O)cc2O)c1-c1ccc(CN2CCOCC2)cc1` [LUMINESPIB], for which, in [1], the Activity result is on record as “Toxic”. In addition, the inhibition entry with Rattus norvegicus [2] and with Rattus norvegicus [3] was “Active” each time.

For `CCNc1nc(OCCOC)nc2c1CN(C(=O)c1cc(C(C)C)c(O)cc1O)CC2`, the AUC(0-t) at 24 h came out at 409 ng·h/mL in data set [4] and 1930 ng·h/mL in data set [9]. For the same compound, the IC50 in the data set on MV4-11 worked out at 27 nM; with MKN-28, 434 nM; with SK-BR-3, 243 nM; in the data set on A549, 194 nM; in the data set with L02, 34000 nM; in the data set with MDA-MB-231 it was 119 nM. Further, the IC50 was determined as 119 nM in the data set on K562; 195 nM with T47D; 100 nM with MCF7; 153 nM with HepG2; 140 nM in the data set with HCT-116; 52 nM in the data set on U2OS. Further, the IC50 in the data set with BT-474 came to 95 nM; at Endoplasmin, 729 nM; with MDA-MB-468, 135 nM; in data set [26] it was 28 nM. Also, in data set [5], the Vz was determined as 1620.19 L/kg. In [6], this compound returned a CLint of 4.45 mL/min/kg. Further, in data set [7], the CL/F was 2060 mL/min/kg. The Papp in data set [8] was 71.5 ×10⁻⁶ cm/s. For the same compound, the Drug uptake result in data set [10], in data set [11] and in data set [15] was “Active” in each case. The inhibition at 20 min, 10 µM on CYP3A4 was 22%; on CYP2C19 it was 21%; at CYP2C9, 36%; at CYP1A2, 8%; on CYP2D6, 48%. In addition, in data set [12], the time to peak (Tmax) amounted to 0.5 h. The Ct in data set [13] is given as above 3 uM/L. Moreover, the concentration in solution in data set [14] (solubility) came to 192 µg/mL (≈ 447 µM). The same compound gave a Cmax in [16] of 72.6 ng/mL. This compound also came in with a bioavailability in data set [17] of 4.23%. The Vd in [18] came to 29.6 L/kg. Also, the half-life in data set [19] was 3.95 h; in data set [24], 9.4 h. For the same compound, the Stabilty in data set [20] worked out at 90.4%. Further, in data set [21], the Activity result is recorded as “Non-Toxic”. Moreover, the logD in data set [22] came to 2.32. Also, the CLz/F in data set [23] was 87.5 mL/min/kg. Also, the t1/2 in [25] worked out at 3.53 h.
